Test results published in ChEMBL document CHEMBL1201862, “PubChem BioAssay data set” (2004).
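Compound exposure: 48 hours, 5 concentrations, 96-well plates. GI50 marks 50% less growth.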 Activity calls are given as the source filed them. Rule as the data show it: active = GI50 up to about 1.1 µM and inactive = higher.

Assays:
Assay in all cases: inhibition of tumour cell growth, NCI panel, 48 h
[1] = system: CCRF-CEM
[2] = system: COLO 205
[3] = system: EKVX
[4] = system: HOP-62
[5] = system: HT-29
[6] = system: Hs-578T
[7] = system: IGROV-1
[8] = system: MCF7
[9] = system: MOLT-4
[10] = system: NCI-H23
[11] = system: NCI-H460
[12] = system: NCI-H522
[13] = system: NCI/ADR-RES
[14] = system: OVCAR-3
[15] = system: OVCAR-4
[16] = system: OVCAR-5
[17] = system: RXF 393
[18] = system: SF-295
[19] = system: SF-539
[20] = system: SNB-19

| Structure (SMILES) | GI50 [1] | GI50 [2] | GI50 [3] | GI50 [4] | GI50 [5] | GI50 [6] | GI50 [7] | GI50 [8] | GI50 [9] | GI50 [10] | GI50 [11] | GI50 [12] | GI50 [13] | GI50 [14] | GI50 [15] | GI50 [16] | GI50 [17] | GI50 [18] | GI50 [19] | GI50 [20] |
| --- | --- | --- | --- | --- | --- | --- | --- | --- | --- | --- | --- | --- | --- | --- | --- | --- | --- | --- | --- | --- |
| CCCCCCCCCCCCCCCCOCC(CCl)OP(=O)(O)OP(=O)(O)OCC1OC(n2ccc(N)nc2=O)C(O)C1O (stereo not given) | > 100 µM (inactive) | > 100 µM (inactive) | > 100 µM (inactive) | > 100 µM (inactive) | > 100 µM (inactive) | > 100 µM (inactive) | > 100 µM (inactive) | > 100 µM (inactive) | > 100 µM (inactive) | > 100 µM (inactive) | > 100 µM (inactive) | > 100 µM (inactive) | > 100 µM (inactive) | > 100 µM (inactive) | > 100 µM (inactive) | > 100 µM (inactive) | > 100 µM (inactive) | > 100 µM (inactive) | > 100 µM (inactive) | > 100 µM (inactive) |
| CCOC(=O)Nc1ccc(S(=O)(=O)Nc2ccc(Br)cc2)cc1 | 46.8 µM (inactive) | 14.6 µM (inactive) | 29.2 µM (inactive) | 33.5 µM (inactive) | 33.2 µM (inactive) | 30.6 µM (inactive) | 35 µM (inactive) | 23.3 µM (inactive) | 26.9 µM (inactive) | 31 µM (inactive) | 23.2 µM (inactive) | 29 µM (inactive) | 34.4 µM (inactive) | 36.3 µM (inactive) | 13.6 µM (inactive) | 58.1 µM (inactive) | 22 µM (inactive) | 30.9 µM (inactive) | 17.2 µM (inactive) | 73.5 µM (inactive) |
| CN(CCCCN(C)CCc1ccc(Cl)c(Cl)c1)CCCCN1CCCC1 | < 0.0235 µM (active) | 1.29 µM (inactive) | 1.63 µM (inactive) | 1.83 µM (inactive) | 0.494 µM (active) | 0.977 µM (active) | 2.2 µM (inactive) | 1.46 µM (inactive) | 3.08 µM (inactive) | 1.71 µM (inactive) | 1.48 µM (inactive) | 0.977 µM (active) | 3.23 µM (inactive) | 2.05 µM (inactive) | 1.83 µM (inactive) | 2.36 µM (inactive) | 1.32 µM (inactive) | 1.83 µM (inactive) | 1.01 µM (active) | 2.26 µM (inactive) |
| O=C(O)c1cc2cc(c1)/N=C/c1ccccc1OCc1cccc(n1)COc1ccccc1/C=N/2 | 9.71 µM (inactive) | > 25 µM (inactive) | > 25 µM (inactive) | > 25 µM (inactive) | 19 µM (inactive) | 4.94 µM (inactive) | 20.4 µM (inactive) | 6.79 µM (inactive) | 20 µM (inactive) | > 25 µM (inactive) | > 25 µM (inactive) | > 25 µM (inactive) | 5.93 µM (inactive) | 5.11 µM (inactive) | 12.2 µM (inactive) | > 25 µM (inactive) | > 25 µM (inactive) | 6.24 µM (inactive) | 8.17 µM (inactive) | 17.3 µM (inactive) |
| Cc1[nH]c2ncn3[nH]c(=S)nc3c2c1Cc1ccccc1 | 76.4 µM (inactive) | > 100 µM (inactive) | > 100 µM (inactive) | > 100 µM (inactive) | > 100 µM (inactive) | 62.7 µM (inactive) | 48.1 µM (inactive) | 52.6 µM (inactive) | > 100 µM (inactive) | > 100 µM (inactive) | > 100 µM (inactive) | 72.4 µM (inactive) | > 100 µM (inactive) | > 100 µM (inactive) | > 100 µM (inactive) | > 100 µM (inactive) | 26.5 µM (inactive) | > 100 µM (inactive) | > 100 µM (inactive) | > 100 µM (inactive) |
| Cc1ccc2nc(C(=O)O)c(=O)[nH]c2c1 | > 100 µM (inactive) | > 100 µM (inactive) | > 100 µM (inactive) | > 100 µM (inactive) | > 100 µM (inactive) | > 100 µM (inactive) | > 100 µM (inactive) | > 100 µM (inactive) | > 100 µM (inactive) | > 100 µM (inactive) | > 100 µM (inactive) | > 100 µM (inactive) | > 100 µM (inactive) | > 100 µM (inactive) | > 100 µM (inactive) | > 100 µM (inactive) | > 100 µM (inactive) | > 100 µM (inactive) | > 100 µM (inactive) | > 100 µM (inactive) |
| NC(=O)C(=CNC(=S)Nc1ccc(S(=O)(=O)Nc2ccccn2)cc1)C(N)=O | 30 µM (inactive) | > 100 µM (inactive) | > 100 µM (inactive) | > 100 µM (inactive) | > 100 µM (inactive) | > 100 µM (inactive) | > 100 µM (inactive) | > 83.2 µM (inactive) | 1.52 µM (inactive) | > 100 µM (inactive) | > 100 µM (inactive) | 50.5 µM (inactive) | 55.3 µM (inactive) | > 100 µM (inactive) | > 100 µM (inactive) | > 100 µM (inactive) | > 100 µM (inactive) | > 100 µM (inactive) | > 100 µM (inactive) | > 100 µM (inactive) |
| CC(C)(C)[Si](C)(C)OCC1CCC(n2cnc3c(NC(=O)c4ccccc4)ncnc32)O1 (stereo not given) | 22 µM (inactive) | 18.5 µM (inactive) | 17.6 µM (inactive) | 22 µM (inactive) | 19.1 µM (inactive) | 14 µM (inactive) | 18.1 µM (inactive) | 23.9 µM (inactive) | 18.2 µM (inactive) | 18.4 µM (inactive) | 18 µM (inactive) | 16.4 µM (inactive) | 16.6 µM (inactive) | 14 µM (inactive) | 21.8 µM (inactive) | 16.7 µM (inactive) | 22 µM (inactive) | 18.2 µM (inactive) | 18.3 µM (inactive) | 18.9 µM (inactive) |
| Brc1ccc(-c2cn3ccncc3n2)cc1 | > 100 µM (inactive) | > 100 µM (inactive) | 63.8 µM (inactive) | > 100 µM (inactive) | > 100 µM (inactive) | > 100 µM (inactive) | > 100 µM (inactive) | > 100 µM (inactive) | 60.3 µM (inactive) | > 100 µM (inactive) | > 100 µM (inactive) | > 100 µM (inactive) | > 100 µM (inactive) | > 100 µM (inactive) | > 100 µM (inactive) | > 100 µM (inactive) | > 100 µM (inactive) | > 100 µM (inactive) | > 100 µM (inactive) | > 100 µM (inactive) |
| O=[N+]([O-])c1cccc2nc3ccccc3c(NCCCN3CCCCC3)c12 | 0.024 µM (active) | < 0.0107 µM (active) | < 0.01 µM (active) | 0.0125 µM (active) | < 0.01 µM (active) | 0.0385 µM (active) | < 0.0104 µM (active) | < 0.01 µM (active) | < 0.01 µM (active) | < 0.01 µM (active) | < 0.01 µM (active) | < 0.01 µM (active) | 0.418 µM (active) | < 0.0126 µM (active) | < 0.01 µM (active) | 0.0208 µM (active) | 0.0101 µM (active) | 0.0146 µM (active) | 0.0163 µM (active) | 0.0233 µM (active) |
